Drawing on ChEMBL document CHEMBL1781960, “Discovery of non-glycoside sodium-dependent glucose co-transporter 2 (SGLT2) inhibitors by ligand-based virtual screening” (J Med Chem, 2010), this text covers EC50 and inhibition for 20 molecules.

What is called pEC50 is −log10 of the EC50, conventionally taken in molar units.

pEC50: −log10 of the molar value.

The target of one test is T1, Sodium/glucose cotransporter 2 (Homo sapiens, UniProt P31639).
T1 sequence (P31639 whole entry): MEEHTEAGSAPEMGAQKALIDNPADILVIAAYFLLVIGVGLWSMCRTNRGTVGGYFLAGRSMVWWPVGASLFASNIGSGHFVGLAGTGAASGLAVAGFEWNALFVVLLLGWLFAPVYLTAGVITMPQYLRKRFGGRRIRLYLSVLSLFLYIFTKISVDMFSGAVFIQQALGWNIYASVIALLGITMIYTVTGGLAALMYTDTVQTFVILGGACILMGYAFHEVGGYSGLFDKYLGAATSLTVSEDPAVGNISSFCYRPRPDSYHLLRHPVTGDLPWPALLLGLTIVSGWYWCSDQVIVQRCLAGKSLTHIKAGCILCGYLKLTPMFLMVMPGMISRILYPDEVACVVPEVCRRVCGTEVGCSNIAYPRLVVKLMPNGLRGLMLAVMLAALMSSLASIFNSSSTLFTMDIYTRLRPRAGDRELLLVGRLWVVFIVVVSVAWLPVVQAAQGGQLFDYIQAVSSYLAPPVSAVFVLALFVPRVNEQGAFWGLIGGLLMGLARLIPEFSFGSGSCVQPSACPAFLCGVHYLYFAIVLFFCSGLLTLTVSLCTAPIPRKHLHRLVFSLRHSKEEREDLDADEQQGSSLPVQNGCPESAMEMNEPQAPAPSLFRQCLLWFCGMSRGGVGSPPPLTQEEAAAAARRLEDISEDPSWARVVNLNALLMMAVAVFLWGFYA
Kind of test: (§1) Inhibition of human SGLT2 expressed in CHO-K1 cells assessed as reduction in [14C]-alpha-methylglucopyranoside uptake after 2 hrs by liquid scintillation counting. The format is cell-based.
Consider `CC(C)(C)C(O)Cn1c(=N)n(Cc2ccccc2)c2ccccc21` (stereo not drawn), for which the pEC50 was 5.41.

As for `CCc1ccc(Cc2cc([C@@H]3O[C@H](CO)[C@@H](O)[C@H](O)[C@H]3O)ccc2C)cc1`, the pEC50 was 7.92.

`COc1ccc(NC(=S)NNC(=O)c2cc(-c3ccccc3)sc2N)cc1`: the pEC50 is 5.05.

Consider `COc1ccc(C(O)Cn2c(=N)n(Cc3ccccc3)c3ccccc32)cc1` (stereo not drawn), for which the pEC50 is 4.79.

As to `OC[C@H]1O[C@@H](n2cc(Cc3ccc(C4CC4)cc3)c3c(F)cccc32)[C@H](O)[C@@H](O)[C@@H]1O`, the negative logarithm of the EC50 (pEC50) is 8.72.

As to `CCOc1ccc(Cc2cc([C@@H]3O[C@H](CO)[C@@H](O)[C@H](O)[C@H]3O)ccc2C)cc1`, the negative logarithm of the EC50 (pEC50) is 8.96.

For the molecule `OC[C@H]1O[C@@H](n2cc(Cc3ccc(C4CC4)cc3)c3c(Cl)cccc32)[C@H](O)[C@@H](O)[C@@H]1O`, the pEC50 was 8.64.

With `C=CCn1c(=N)n(CC(O)C(C)(C)C)c2ccccc21` (stereo not drawn), the pEC50 was 4.39.

As for `CC(C)(C)C(O)Cn1c(=N)n(CCN2CCCCC2)c2ccccc21` (stereo not drawn), the negative-log EC50 (pEC50) was under 4.30.

Turning to `N=c1n(Cc2ccccc2)c2ccccc2n1CC(O)COc1ccccc1` (stereo not drawn), the pEC50 was 5.34.

`Cn1cc(CCc2ccc3c(c2)CCO3)c2c(O[C@@H]3O[C@H](CO)[C@@H](O)[C@H](O)[C@H]3O)cccc21`: the negative-log EC50 (pEC50) is 7.17.

Take `N=c1n(Cc2ccccc2)c2ccccc2n1CC(O)c1cccs1` (stereo not drawn): the pEC50 was 4.72.

As for `OC[C@H]1O[C@@H](n2cc(Cc3ccc(C4CC4)cc3)c3c(F)cc(F)cc32)[C@H](O)[C@@H](O)[C@@H]1O`, the pEC50 is 8.55.

For `N=c1n(CCO)c2ccccc2n1Cc1ccccc1`, the pEC50 was under 4.30.

In the case of `N=c1n(CC(=O)O)c2ccccc2n1Cc1ccc(Cl)cc1`, the negative logarithm of the EC50 (pEC50) was under 4.30.

For `COc1cc(C(Nc2cccc(C)n2)c2ccc3ccc(C)nc3c2O)cc(OC)c1OC` (stereo not drawn), the pEC50 was 5.23.

With `N=c1n(CCO)c2ccccc2n1Cc1ccc(Cl)cc1`, the negative-log EC50 (pEC50) is 4.51.

For the molecule `N=c1n(Cc2ccc(Cl)cc2)c2ccccc2n1CC(O)c1ccco1` (stereo not drawn), the pEC50 is 4.96.

Consider `OC[C@H]1O[C@@H](Oc2cccc3[nH]cc(CCc4ccc5c(c4)CCO5)c23)[C@H](O)[C@@H](O)[C@@H]1O`, for which the pEC50 is 7.62.

`N=c1n(Cc2ccccc2)c2ccccc2n1CC(O)c1ccco1` (stereo not drawn): the negative logarithm of the EC50 (pEC50) was 4.46.

The target in another test is T2, Sodium/glucose cotransporter 2 (Homo sapiens) (UniProt P31639).
T2 sequence (whole entry): T1 sequence (P31639 whole entry)
Described as §1. It counts as cell-based.
Regarding `CC(C)(C)C(O)Cn1c(=N)n(Cc2ccccc2)c2ccccc21` (stereo not drawn), the inhibition result is “Dose-dependent effect”.

As to `COc1ccc(NC(=S)NNC(=O)c2cc(-c3ccccc3)sc2N)cc1`, the inhibition entry is “Dose-dependent effect”.

`COc1cc(C(Nc2cccc(C)n2)c2ccc3ccc(C)nc3c2O)cc(OC)c1OC` (stereo not drawn): the inhibition result is “Dose-dependent effect”.
